{"source": "patent US11589603B2", "about": "“Powdered nutritional product containing branched-chain amino acids and a sugar alcohol” (Abbott Laboratories, priority 2015, dated 2023)", "key": {"[1]": {"assay": "Example 5: effect of inositol isomers on dissolution of L-leucine, LC/UV of filtrate", "format": "physicochemical", "details": "3.50 g L-leucine with 0.1 g/16 oz. inositol isomer, water 21° C., 400 rpm", "description": "The LC/UV system used to perform the tests comprised the following: 1) Column: YMC ODS-AQ, 4.6 x 250 mm, 5 μm, Waters […]; 2) Mobile Phase: Milli-Q Plus water; 3) Flow Rate: 0.4 mL/minute; 4) Temperature: 40° C.; 5) Detection: UV at 192 nm; 6) Injection: 2 μL of filtrate; and 7) Run Time: 20 minutes."}, "[2]": {"assay": "Example 4: aqueous dissolution of branched-chain amino acids in a powdered nutritional product with varying myo-inositol, LC/UV of filtrate", "format": "physicochemical", "details": "powdered nutritional product; particularly evident at 30 seconds across all concentrations", "description": "The LC/UV system used to perform the tests comprised the following: 1) Column: YMC ODS-AQ, 4.6 x 250 mm, 5 μm, Waters P/N AQ12S052546WT; 2) Mobile Phase: Milli-Q Plus water; 3) Flow Rate: 0.4 mL/minute; 4) Temperature: 40° C.; 5) Detection: UV at 192 nm; 6) Injection: 2 μL of filtrate; and 7) Run Time: 20 minutes.\nExample 4 evaluates the effect that myo-inositol concentration has on the aqueous dissolution of branched-chain amino acids (valine, isoleucine, and leucine) in a powdered nutritional product. One serving (17.6 grams) of the powdered nutritional product contains 7.00 grams of a branched-chain amino acid blend comprising 50 wt. % leucine, 25 wt. % isoleucine, and 25 wt. % valine. A serving of the powdered nutritional product with a specified amount of myo-inositol was added to 16 fluid ounces of Milli-Q Plus water at 21° C. and stirred at 400 rpm. At each specified time point, an aliquot was obtained and filtered through a 0.45 μm PTFE membrane (Pall Life Sciences, Acrodisc CR 25, P/N 4501), and the filtrate was tested for valine, isoleucine, and leucine using the LC/UV method as described in Example 3."}}, "note": "“And” between values parts separate entries of the source, which are not always exact repeats. Equal entries are not always repeated.", "data": [{"molecule": "O[C@H]1[C@H](O)[C@@H](O)[C@H](O)[C@@H](O)[C@H]1O", "note": "[myo-inositol]", "values": [{"measurement": "Leu dissolved at 30 seconds (g/16 oz.)", "setting": "[1]; 30 seconds", "result": "0.465 g/16 oz. and 0.495 g/16 oz."}, {"measurement": "Leu dissolved at 60 seconds (% of total Leu)", "setting": "[1]; 60 seconds", "result": "23.9 % of total Leu and 22.3 % of total Leu"}, {"measurement": "Leu dissolved at 60 seconds (g/16 oz.)", "setting": "[1]; 60 seconds", "result": "0.838 g/16 oz. and 0.781 g/16 oz."}, {"measurement": "effect of addition of myo-inositol on rate of dissolution of the branched-chain amino acids", "setting": "[2]", "result": "enhanced the rate of dissolution"}]}]}
